Assay [1] addresses T1, Recombinant human PAD4 (residues 1-663) (Homo sapiens, UniProt Q9UM07).
T1 construct: Recombinant human PAD4 (residues 1-663) was expressed in E. coli as an N-terminal GST-tagged fusion protein; GST (N, cleaved yes); made in house; host or cells: E. coli
Nature of the assay: PAD4 enzyme assay (FLINT NH3 release, BAEE substrate; conditions A or B). Type of assay: biochemical. Conditions: PAD4 enzyme assay above or similar assays; read-out: mean pIC50 (converted). The protocol: During purification of the protein, the GST tag was removed by cleavage with PreScission Protease (GE Healthcare). Activity of the final PAD4 enzyme and batch consistency was determined by employing the enzyme in the FLINT NH3 release assay in the presence of N-a-benzoyl-L-arginine ethyl ester (BAEE) substrate and measuring the levels of NH3 release at a known substrate/enzyme concentration.
(§1) 8 μl of PAD4 enzyme diluted to an assay concentration of 75 nm in assay buffer (a): (100 mM HEPES, 50 mM NaCl, 2 mM DTT and 0.6 mg/ml BSA pH 8), or in assay buffer (b): (100 mM HEPES, 50 mM NaCl, 2 mM DTT, 7.5% glycerol and 1.5 mM CHAPS pH 8), and added to wells containing 0.1 μl of various concentrations of compound or DMSO vehicle (0.8% final) in a Greiner high volume 384 well black plate. Following 30 mins pre-incubation at rt, the reaction was initiated by the addition of 4 μl of substrate buffer containing 3 mM N-a-benzoyl-L-arginine ethyl ester (BAEE), 100 mM HEPES, 50 mM NaCl, 600 uM CaCl2 (2H2O) and 2 mM DTT, pH 8.0. The reaction was stopped after 100 mins with the addition of 38 μl stop/detection buffer containing 50 mM EDTA, 2.6 mM phthalaldehyde and 2.6 mM DTT.
as §1, with “of 30 nM” for “of 75 nm”, “buffer” for “buffer (a):”, “BSA” for “BSA pH 8), or in assay buffer (b): (100 mM HEPES, 50 mM NaCl, 2 mM DTT, 7.5% glycerol and 1.5 mM CHAPS”, “after 60” for “after 100”

Assay [2] has as its target T2, Recombinant human PAD2 (residues 1-665) (Homo sapiens, UniProt Q9Y2J8).
T2 construct: Recombinant human PAD2 (residues 1-665) was expressed in baculovirus-infected Sf9 insect cells; 6His-FLAG (N); made in house; host or cells: baculovirus-infected Sf9 insect cells
The experiment in a line: PAD2 enzyme assay (FLINT NH3 release, BAEE substrate). Conditions: PAD2 enzyme assay above or similar assays; to assess selectivity for PAD4 over PAD2; read-out: mean pIC50 (converted). It counts as biochemical. The protocol: Activity of the final product was determined using a FLINT NH3 release assay.
8 μl of PAD2 enzyme diluted to an assay concentration of 30 nM in assay buffer (100 mM HEPES, 50 mM NaCl, 2 mM DTT, 7.5% glycerol and 1.5 mM CHAPS pH 8), and added to wells containing 0.1 μl of various concentrations of compound or DMSO vehicle (0.8% final) in a Greiner high volume 384 well black plate. […] The reaction was stopped after 90 mins with the addition of […] stop/detection buffer containing 50 mM EDTA, 2.6 mM phthalaldehyde and 2.6 mM DTT.

Where “and” joins values, the source holds several entries; their conditions need not be identical. Identical values can stand only once. Some results are limits rather than exact numbers.

T1 sequence (Q9UM07 whole entry, the tested form may be a part): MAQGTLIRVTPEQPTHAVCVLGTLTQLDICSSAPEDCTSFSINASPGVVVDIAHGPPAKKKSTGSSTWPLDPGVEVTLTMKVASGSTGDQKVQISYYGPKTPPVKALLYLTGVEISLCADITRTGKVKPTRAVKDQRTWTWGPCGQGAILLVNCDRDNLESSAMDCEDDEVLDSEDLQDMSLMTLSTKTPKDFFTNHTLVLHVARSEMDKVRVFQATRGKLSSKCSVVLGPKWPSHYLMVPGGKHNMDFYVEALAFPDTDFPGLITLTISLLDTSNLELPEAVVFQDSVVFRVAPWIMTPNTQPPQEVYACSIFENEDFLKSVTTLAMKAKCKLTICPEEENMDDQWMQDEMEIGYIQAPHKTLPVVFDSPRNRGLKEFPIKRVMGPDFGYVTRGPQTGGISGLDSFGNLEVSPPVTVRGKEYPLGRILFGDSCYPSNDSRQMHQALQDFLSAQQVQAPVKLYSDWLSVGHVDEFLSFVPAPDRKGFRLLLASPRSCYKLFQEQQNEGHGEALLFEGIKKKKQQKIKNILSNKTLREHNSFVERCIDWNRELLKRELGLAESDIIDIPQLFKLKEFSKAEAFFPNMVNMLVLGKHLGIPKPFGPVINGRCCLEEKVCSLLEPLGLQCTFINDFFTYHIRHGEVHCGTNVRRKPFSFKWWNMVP
T2 sequence (Q9Y2J8 whole entry, the tested form may be a part): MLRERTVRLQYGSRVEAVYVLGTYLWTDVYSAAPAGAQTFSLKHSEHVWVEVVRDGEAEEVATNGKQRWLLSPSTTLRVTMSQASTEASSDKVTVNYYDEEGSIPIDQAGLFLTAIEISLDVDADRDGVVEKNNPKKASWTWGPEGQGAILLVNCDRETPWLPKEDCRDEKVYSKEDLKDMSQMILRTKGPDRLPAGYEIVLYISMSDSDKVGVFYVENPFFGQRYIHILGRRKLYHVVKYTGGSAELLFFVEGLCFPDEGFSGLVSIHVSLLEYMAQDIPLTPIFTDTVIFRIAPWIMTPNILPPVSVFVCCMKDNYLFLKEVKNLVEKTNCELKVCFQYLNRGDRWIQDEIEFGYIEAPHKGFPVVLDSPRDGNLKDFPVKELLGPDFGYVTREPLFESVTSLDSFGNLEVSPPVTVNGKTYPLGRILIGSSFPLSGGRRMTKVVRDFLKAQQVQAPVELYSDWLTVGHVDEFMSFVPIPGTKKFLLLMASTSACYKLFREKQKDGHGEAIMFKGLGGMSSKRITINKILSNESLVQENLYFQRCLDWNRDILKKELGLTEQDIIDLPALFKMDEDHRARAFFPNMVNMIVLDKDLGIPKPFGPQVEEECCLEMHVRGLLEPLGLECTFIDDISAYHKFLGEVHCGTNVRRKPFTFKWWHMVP

`Cn1c(-c2cc3ccccc3n2Cc2cccnc2)nc2cc(C(=O)N3CCC[C@@H](N)C3)ccc21` [Example 15, (3R)-1-({1-Methyl-2-[1-(3-pyridinylmethyl)-1H-indol-2-yl]-1H-benzimidazol-5-yl}carbonyl)-3-piperidinamine]: the IC50 in assay [1] was 39.8 to 398 nM and 398 nM. Same read-out and setting: for `Cn1cc(Cn2c(-c3nc4cc(C(=O)N5CCC[C@@H](N)C5)ccc4n3C)cc3ccccc32)cn1` [Example 20b, (3R)-1-[(1-Methyl-2-{1-[(1-methyl-1H-pyrazol-4-yl)methyl]-1H-indol-2-yl}-1H-benzimidazol-5-yl)carbonyl]-3-piperidinamine] the value was 39.8 to 398 nM and 398 nM; for `Cn1c(-c2cc3ccccc3n2Cc2ccccc2)nc2cc(C(=O)N3CCC[C@@H](N)C3)ccc21` [Example 24, (3R)-1-({1-Methyl-2-[1-(phenylmethyl)-1H-indol-2-yl]-1H-benzimidazol-5-yl}carbonyl)-3-piperidinamine], 39.8 to 398 nM and 158 nM. In the case of `Cn1c(-c2cc3ccccc3n2CC2CC2)nc2cc(C(=O)N3CC[C@@H](O)[C@@H](N)C3)ccc21` [Example 65, ((3S,4R)-3-Amino-4-hydroxypiperidin-1-yl)(2-(1-(cyclopropylmethyl)-1H-indol-2-yl)-1-methyl-1H-benzo[d]imidazol-5-yl)methanone], the IC50 in assay [2] was greater than 79400 nM; in assay [1], 39.8 to 398 nM and 158 nM.

These data come from US10407407B2, “Benzoimidazole derivatives as PAD4 inhibitors” (GLAXOSMITHKLINE INTELLECTUAL PROPERTY DEVELOPMENT LIMITED, priority 2015, dated 2019).
